Results on 2 compounds are retold here after patent US11203598B2, “Compounds for repressing cancer cell growth” (Institute For Cancer Research, priority 2018, dated 2021).

Each structure is given as a SMILES string.

Assay [1] concerns Noxa in 8226 bortezomib resistant multiple myeloma cell line. As to the kind of experiment: Western blot of Noxa. The class given is cell-based. Conditions: 25 μM Analog 4, 100 μM Analog 11. The method, then: Referring to FIG. 20 (panel C), 1×10^6 cells/well were seeded in a 12-well plate. 8226 parental and resistant multiple myeloma cell lines were treated with 100 μM CB002, 25 μM Analog 4, or 100 μM Analog 11.
Background: A western blot detects proteins with antibodies after separation by electrophoresis.

Assay [2] deals with cancer (DLD-1, SW480, and RXF393) cell lines. As to the kind of experiment: CellTiter-Glo cell viability, panel of cancer cell lines (summary). The class given is cell-based. Conditions: Homo sapiens; 72 hours. The procedure:
(§1) Cells were seeded in 96-well plates at a density of 5×10^3 cells per well. 20 μL of CellTiter-Glo® Reagent was added directly to the wells, following the manufacturer's protocol, and bioluminescence signal was determined using an IVIS imaging system.
(§2) To begin establishing the potential of CB002 as a candidate therapeutic agent, its therapeutic index was determined by treating cancer (DLD-1, SW480, and RXF393) and normal (WI38 and MRC5) cell lines with concentrations of CB002 ranging from 0-500 μM for a period of 72 hours and assessing cell viability by the CellTiter-Glo® luminescence assay (see, FIG. 2). CB002 has a significant therapeutic index among the cells tested.
In general terms: Cellular ATP, detected with luciferase, serves as a proxy for viable cell number.

Assay [3] has as its target T1, mutant p53 in DLD-1 cells (Homo sapiens, UniProt P04637, S241F).
T1 construct: endogenous in cells; host or cells: DLD-1 colorectal cancer cells
As to the kind of experiment: cycloheximide chase assay. The class given is cell-based. The settings on record: 24 hours treatment, then 100 μg/mL cycloheximide, 0-10 hours. The procedure:
As mutant p53 can acquire a gain-of-function activity, targeting mutant p53 for degradation has been explored as a therapeutic strategy. To investigate the capability of CB002 to impact on mutant p53 protein expression, Western blot analysis was used. […] To confirm these findings, a cycloheximide chase assay was performed. Cells were treated with vehicle control or CB002 for a period of 24 hours. Subsequently, 100 μg/mL cycloheximide was added to the wells and protein lysates were collected at different time points between 0-10 hours. […] Referring to FIG. 6, experiments with SW480 cells (Panels A and B) and analysis of DLD-1 colorectal cancer cells (Panel C) are shown. Cells were treated for a 24 hour period with DMSO, CB002 or positive control followed by 100 μg/mL of cycloheximide addition, and protein stability was evaluated in a time course ranging from 0-10 hours. Histone deacetylase inhibitor, SAHA and Hsp90 inhibitor Geldanamycin (1 μM GA) were used as positive controls.

Assay [4] concerns normal (WI38 and MRC5) cell lines. The assay can be described thus: CellTiter-Glo cell viability, normal cell lines (summary). It is filed as cell-based. The settings on record: Homo sapiens; 72 hours. The method, then:
as §1, §2

For assay [5], the system named is DLD-1 cells. The assay can be described thus: CellTiter-Glo luminescent cell viability assay. The class given is cell-based. The settings on record: Homo sapiens; DLD-1, 72 hours, GraphPad. The method, then: as §1, §2
Assay [6] relates to RXF393 renal cancer cells. The assay can be described thus: CellTiter-Glo luminescent cell viability assay. It is filed as cell-based. The settings on record: Homo sapiens, RXF 393; RXF393, 72 hours, GraphPad. The procedure: as §1, §2
The test system of assay [7] is MRC5 normal lung fibroblasts. The assay can be described thus: CellTiter-Glo luminescent cell viability assay. It is filed as cell-based. The settings on record: Homo sapiens, MRCS (normal), 72 hours, GraphPad. The method, then:
as §1, §2

The subject of another assay is DLD-1 p73kd cells. The assay can be described thus: CellTiter-Glo luminescent cell viability assay. It is filed as cell-based. The settings on record: Homo sapiens, 72 hours, GraphPad. The method, then: as §1, §2
Assay [8] concerns p73 DLD-1 stable knockdown cells. As to the kind of experiment: colony formation assay. It is filed as cell-based, human. The settings on record: 50 μM for 24 hours, then 15 days drug-free. The procedure:
(§3) Cells were seeded in 6-well plates at a density of 500 cells per well. Cells were treated with CB002 small molecule for 24 hours. Then, cells were cultured in drug-free complete media for 15 days. During the course of 15 days, the media was changed every 2-3 days. At the end of the two weeks, media was removed, wells were washed twice with Dulbecco's phosphate buffered saline (PBS) and the colonies were fixed and stained with 10% methanol and 0.25% crystal violet (Sigma-Aldrich) for 30 minutes. Wells were then carefully washed with distilled and deionized water and allowed to dry.
(§4) To further validate CB002 as a candidate therapeutic, its capability to affect cell growth was determined by analyzing cancer cell colony formation. Colony formation assays are widely used to determine the ability of a single cell to proliferate and form a colony in culture. This method offers the advantage of elucidating the sensitivity of cells towards cytotoxic agents in a long-term assay that may mimic the response seen in mouse models. […] Referring to FIG. 3, cells were treated with 50 μM of CB002 for a period of 24 hours, at which point media was replaced with complete media for a period of 15 days. Images are from one of three replicates.

Assay [9] deals with DLD-1 cells. The assay can be described thus: colony formation assay. The class given is cell-based, human. The settings on record: 50 μM for 24 hours, then 15 days drug-free. The method, then:
as §3, §4

The subject of the next assay is SW480 cells. The assay can be described thus: colony formation assay. The class given is cell-based, human. The settings on record: 50 μM for 24 hours, then 15 days drug-free. The method, then:
as §3, §4

The target in assay [10] is T2, R175H p53 mutant in HCT116 p53 R175H cells (Homo sapiens, UniProt P04637, R175H).
T2 construct: V5 (only from the vector name pLenti6/V5); host or cells: HCT116 p53-/- cells, lentivirus infection, blasticidin-selected pooled clones
As to the kind of experiment: Western blot of mutant p53. It is filed as cell-based. The method, then:
HCT116 p53^−/− cells (previously obtained from the Vogelstein Laboratory, Johns Hopkins University) were infected with a lentivirus vector containing the p53 R175H mutant (pLenti6/V5-p53_R175H, Addgene). Cells were selected with blasticidin (8 μg/mL) containing media cultured for 10 days. Blasticidin-resistant clones (pooled clones) were screened for expression of the p53 R175H mutation by Western blot analysis with p53 DO-1 antibody.
After treatment, cells were harvested by trypsinization, washed with PBS, and lysed with RIPA buffer (Sigma-Aldrich) for 30 minutes to 1 hour at 4° C. Protein lysates were spun down and supernatant was collected. Protein quantification was performed using a Pierce™ BCA Protein Assay Kit (Thermo Fisher Scientific). 1×NuPAGE® LDS sample buffer (Thermo Fisher Scientific) and 2-Mercaptoethanol as the reducing agent (Sigma-Aldrich) were added to protein lysates, followed by boiling for 15 minutes at 95° C. Equal total protein amounts samples were loaded into NuPAGE™ Novex™ 4-12% Bis-Tris Protein Gels (1.5 mm, Thermo Fisher Scientific) and gel eletrophoresis was performed with NuPAGE™ MES SDS Running Buffer. Proteins were transferred onto an Immobilon-P membrane (PVDF, EMD Millipore) using a Bio-Rad system with a 10% Tris-Glycine and 10% methanol transfer buffer diluted in distilled and deionized water. After transfer, membranes were blocked with 10% milk in TBST solution and then incubated overnight with primary antibody, washed with TBST and incubated with secondary antibody for 1 hour. Incubations were performed in 5% milk in TBST solution. Signal was detected by using a chemiluminescent detection kit, followed by autoradiography. The following antibodies were used: p53 (DO-1, 1:1000, Santa Cruz), p73 (1:1000, Bethyl Laboratories), p21 and NOXA (1:250, EMD Millipore), DR5, FADD, cleaved caspase 3, cleaved caspase 8, cleaved PARP, and LC3B (1:1000, Cell Signaling), and β-actin (1:10000, Sigma).

In the case of `Cn1c(=O)c2c(nc(Nc3ccccc3)n2C)n(C)c1=O` [Analog 11, 8-anilino-1,3,7-trimethyl-3,7-dihydro-1Hpurine-2,6-dione], in [1], the Noxa expression entry was “able to induce Noxa expression”.
In general, IC50 refers to the midpoint of a concentration-inhibition curve. Turning to `Cn1c(=O)c2[nH]c(Nc3ccccc3)nc2n(C)c1=O` [CB002, 8-anilino-1,3-dimethyl-3,7-dihydro-1H-purine-2,6-dione], the IC50 in assay [2] was 96 to 400 µM; in [4], roughly 650 µM; in the assay with DLD-1 cells [5], 161 µM; in assay [6] it was 400 µM; in assay [7], 647 µM; with DLD-1 p73kd cells it was 240 µM. Also, the “mutant p53 stability” value in [3] is “did not affect mutant p53 stability”. The colony formation entry (in assay [8]; with DLD-1 cells [9]; in the assay with SW480 cells) was “significantly decreases colony formation” in each case. Further, the “R175H mutant p53 protein expression” value in assay [10] (50 and 100 μM, 16 and 24 hours, versus DMSO) is listed as “decrease in mutant p53 protein expression”; in assay [10] (co-treatment with chloroquine, 16 and 24 hours), “did not rescue R175H mutant p53 protein expression”; in [10] (with proteasome inhibitor MG132 (5 and 10 μM), 24 hours) it was “appeared to rescue R175H mutant p53 protein expression”. For the same compound, the “R175H p53 mutant protein expression” value in [10] (50 or 100 μM with MDM2 inhibitor Nutlin-3A, 24 hours) is “still resulted in reduction of R175H p53 mutant protein expression”.
